Patent publication US9168259B2 (GRÜNENTHAL GMBH, priority 2010, dated 2015)

Biological target: T1, KCNQ2/3 channels (Homo sapiens, UniProt O43525+O43526)
T1 construct: expressed in transfected cells
Assay: Fluorescence assay using a voltage sensitive dye (fluorimetry)
Assay type: cell-based
Settings: CHO-K1 cells expressing KCNQ2/3; for Emax: CHO-K1, plateau effect relative to saturated retigabine (50 μM) = 100%, negative values = antagonistic, read-out: Fluorimetry % efficacy (retigabine = 100%); for EC50: IC50 where % efficacy is negative, read-out: Fluorimetry EC50/IC50

T1 sequence (O43526 whole entry): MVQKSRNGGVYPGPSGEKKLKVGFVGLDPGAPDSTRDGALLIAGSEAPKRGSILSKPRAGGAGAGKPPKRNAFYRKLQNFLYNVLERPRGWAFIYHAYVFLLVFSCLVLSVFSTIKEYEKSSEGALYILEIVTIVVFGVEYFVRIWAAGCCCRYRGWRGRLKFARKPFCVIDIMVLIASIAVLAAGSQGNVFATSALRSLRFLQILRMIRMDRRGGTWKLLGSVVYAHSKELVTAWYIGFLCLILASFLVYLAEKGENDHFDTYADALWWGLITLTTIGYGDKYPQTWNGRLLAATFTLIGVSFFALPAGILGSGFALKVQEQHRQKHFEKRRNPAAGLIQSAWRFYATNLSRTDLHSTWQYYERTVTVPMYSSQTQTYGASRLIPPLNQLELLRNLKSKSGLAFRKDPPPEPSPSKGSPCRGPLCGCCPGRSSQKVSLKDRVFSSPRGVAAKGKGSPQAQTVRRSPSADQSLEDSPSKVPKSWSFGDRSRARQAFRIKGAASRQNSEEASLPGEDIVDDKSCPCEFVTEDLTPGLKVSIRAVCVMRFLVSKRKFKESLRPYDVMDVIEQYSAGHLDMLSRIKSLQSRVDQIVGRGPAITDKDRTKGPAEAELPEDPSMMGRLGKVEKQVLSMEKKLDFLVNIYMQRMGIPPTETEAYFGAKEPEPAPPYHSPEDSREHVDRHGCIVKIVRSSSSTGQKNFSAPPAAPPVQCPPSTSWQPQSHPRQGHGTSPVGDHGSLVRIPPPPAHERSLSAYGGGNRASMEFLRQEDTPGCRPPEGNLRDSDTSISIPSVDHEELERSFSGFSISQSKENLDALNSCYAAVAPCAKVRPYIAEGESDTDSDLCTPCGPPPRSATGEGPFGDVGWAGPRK
T1 sequence (O43525 whole entry): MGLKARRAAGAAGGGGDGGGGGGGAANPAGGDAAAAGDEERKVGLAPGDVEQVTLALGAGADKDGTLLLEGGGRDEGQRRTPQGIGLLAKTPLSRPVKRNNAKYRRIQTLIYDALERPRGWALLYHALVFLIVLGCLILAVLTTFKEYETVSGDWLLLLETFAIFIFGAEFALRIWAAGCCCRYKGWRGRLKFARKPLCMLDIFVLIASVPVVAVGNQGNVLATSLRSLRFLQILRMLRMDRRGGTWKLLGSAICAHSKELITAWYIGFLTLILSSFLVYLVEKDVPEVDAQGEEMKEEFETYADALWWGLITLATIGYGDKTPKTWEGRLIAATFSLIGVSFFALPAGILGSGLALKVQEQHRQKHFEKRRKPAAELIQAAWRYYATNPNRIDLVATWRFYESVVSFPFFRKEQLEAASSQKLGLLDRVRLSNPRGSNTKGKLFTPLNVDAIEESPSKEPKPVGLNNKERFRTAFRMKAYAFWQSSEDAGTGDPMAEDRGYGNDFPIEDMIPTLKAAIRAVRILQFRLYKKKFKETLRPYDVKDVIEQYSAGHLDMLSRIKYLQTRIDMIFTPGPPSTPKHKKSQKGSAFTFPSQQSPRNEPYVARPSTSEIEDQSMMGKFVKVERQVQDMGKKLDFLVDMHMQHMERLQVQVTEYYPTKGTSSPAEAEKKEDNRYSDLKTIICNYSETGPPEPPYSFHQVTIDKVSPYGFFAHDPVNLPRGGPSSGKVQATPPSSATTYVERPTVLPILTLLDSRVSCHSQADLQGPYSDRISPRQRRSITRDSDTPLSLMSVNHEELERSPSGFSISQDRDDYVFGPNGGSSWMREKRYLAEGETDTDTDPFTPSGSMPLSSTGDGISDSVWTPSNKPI

Row | SMILES | Emax [%] | EC50 [nM]
1 | CCSc1nc(N2CCNC(=O)C2)cc(C)c1C(=O)NCc1cccc(F)c1 [Example 143, 2-Ethylsulfanyl-N-[(3-fluorophenyl)-methyl]-4-methyl-6-(3-oxo-piperazin-1-yl)-pyridine-3-carboxylic acid amide] | 28 | –
2 | CCSc1nc(N2CCN(C(C)=O)CC2)cc(C)c1C(=O)NCc1cccc(F)c1 [Example 144, 6-(4-Acetyl-piperazin-1-yl)-2-ethylsulfanyl-N-[(3-fluorophenyl)-methyl]-4-methyl-pyridine-3-carboxylic acid amide] | 59 | –
3 | CSc1nc(N2CCOCC2)cc(C)c1C(=O)NCCCC(C)(C)C [Example 152, N-(4,4-Dimethyl-pentyl)-4-methyl-2-methylsulfanyl-6-morpholin-4-yl-pyridine-3-carboxylic acid amide] | 249 | 63
4 | CCSc1nc(N2CCN3C(=O)CCC3C2)cc(C)c1C(=O)NCc1cccc(F)c1 (stereo not drawn) [Example 158, 2-Ethylsulfanyl-N-[(3-fluorophenyl)-methyl]-4-methyl-6-(6-oxo-2,3,4,7,8,8a-hexahydro-1H-pyrrolo[1,2-a]pyrazin-2-yl)-pyridine-3-carboxylic acid amide] | 60 | –
5 | CCSc1nc(N2CC3CC2CO3)cc(C)c1C(=O)NCc1cccc(F)c1 (stereo not drawn) [Example 159, 2-Ethylsulfanyl-N-[(3-fluorophenyl)-methyl]-4-methyl-6-(3-oxa-6-azabicyclo[2.2.1]heptan-6-yl)-pyridine-3-carboxylic acid amide] | 149 | 1260
6 | CCSc1nc(N2CCOCC2)cc(C)c1C(=O)NCCCC#N [Example 160, N-(3-Cyano-propyl)-2-ethylsulfanyl-4-methyl-6-morpholin-4-yl-pyridine-3-carboxylic acid amide] | 70 | –
7 | CCSc1nc(N2CCOCC2)cc(C)c1C(=O)NCCCS(C)(=O)=O [Example 162, 2-Ethylsulfanyl-4-methyl-N-(3-methylsulfonyl-propyl)-6-morpholin-4-yl-pyridine-3-carboxylic acid amide] | 21 | –
8 | CCSc1nc(N2CCOCC2)cc(C)c1C(=O)NCCCCC#N [Example 163, N-(4-Cyano-butyl)-2-ethylsulfanyl-4-methyl-6-morpholin-4-yl-pyridine-3-carboxylic acid amide] | 73 | –
9 | COc1nc(N2CCOCC2)cc(C)c1C(=O)NCc1ccc(Cl)cc1 [Example 165, N-[(4-Chlorophenyl)-methyl]-2-methoxy-4-methyl-6-morpholin-4-yl-pyridine-3-carboxylic acid amide] | 135 | 230
10 | Cc1cc(N2CCOC[C@H]2C)nc(C(C)C)c1C(=O)NCc1ccc(F)cc1 [Example 169, N-[(4-Fluorophenyl)-methyl]-2-isopropyl-4-methyl-6-[(3R)-3-methyl-morpholin-4-yl]-pyridine-3-carboxylic acid amide] | 197 | 24
11 | CCSc1nc(N(C)c2ccccn2)cc(C)c1C(=O)NCc1cccc(F)c1 [Example 170, 2-Ethylsulfanyl-N-[(3-fluorophenyl)-methyl]-4-methyl-6-(methyl-pyridin-2-yl-amino)-pyridine-3-carboxylic acid amide] | 84 | 1240
12 | CCSc1nc(N(C)c2cccnc2)cc(C)c1C(=O)NCc1cccc(F)c1 [Example 171, 2-Ethylsulfanyl-N-[(3-fluorophenyl)-methyl]-4-methyl-6-(methyl-pyridin-3-yl-amino)-pyridine-3-carboxylic acid amide] | 62 | 1940
13 | Cc1cc(N2CCOC[C@H]2C)nc(N(C)C)c1C(=O)NCc1ccc(F)cc1 [Example 172, 2-Dimethylamino-N-[(4-fluorophenyl)-methyl]-4-methyl-6-[(3R)-3-methyl-morpholin-4-yl]-pyridine-3-carboxylic acid amide] | 246 | 378
14 | CCN(C)c1nc(N2CCOC[C@H]2C)cc(C)c1C(=O)NCc1ccc(F)cc1 [Example 173, 2-(Ethyl-methyl-amino)-N-[(4-fluorophenyl)-methyl]-4-methyl-6-[(3R)-3-methyl-morpholin-4-yl]-pyridine-3-carboxylic acid amide] | 259 | 201

Results, then the molecule that gave them:

Row | Emax [%] | EC50 [nM] | SMILES
15 | 125 | 38 | CCSc1nc(N2CCOCC2)cc(C)c1C(=O)NCc1ccc(C(F)(F)F)c(F)c1 [Example 142, 2-Ethylsulfanyl-N-[[3-fluoro-4-(trifluoromethyl)-phenyl]-methyl]-4-methyl-6-morpholin-4-yl-pyridine-3-carboxylic acid amide]
16 | 145 | 673 | CCSc1nc(N2CCOCC2)cc(C)c1C(=O)NCc1ccc(C#N)cc1 [Example 145, N-[(4-Cyano-phenyl)-methyl]-2-ethylsulfanyl-4-methyl-6-morpholin-4-yl-pyridine-3-carboxylic acid amide]
17 | 159 | 2490 | CCSc1nc(N2CCOCC2)cc(C)c1C(=O)NCc1ccc(COC)cc1 [Example 146, 2-Ethylsulfanyl-N-[[4-(methoxymethyl)-phenyl]-methyl]-4-methyl-6-morpholin-4-yl-pyridine-3-carboxylic acid amide]
18 | 153 | 530 | CCSc1nc(N2CCOCC2)cc(C)c1C(=O)NCc1ccc(COC)c(F)c1 [Example 147, 2-Ethylsulfanyl-N-[[3-fluoro-4-(methoxymethyl)-phenyl]-methyl]-4-methyl-6-morpholin-4-yl-pyridine-3-carboxylic acid amide]
19 | 105 | 3620 | CCSc1nc(N2CCOCC2)cc(C)c1C(=O)NCc1ccc(N(C)C)cc1 [Example 148, N-[(4-Dimethylaminophenyl)-methyl]-2-ethylsulfanyl-4-methyl-6-morpholin-4-yl-pyridine-3-carboxylic acid amide]
20 | 136 | 451 | CCSc1nc(N2CCOCC2)cc(C)c1C(=O)NCc1ccc(F)c(COC)c1 [Example 149, 2-Ethylsulfanyl-N-[[4-fluoro-3-(methoxymethyl)-phenyl]-methyl]-4-methyl-6-morpholin-4-yl-pyridine-3-carboxylic acid amide]
21 | 98 | 9650 | CCSc1nc(N2CCN(C)C(=O)C2)cc(C)c1C(=O)NCc1cccc(F)c1 [Example 150, 2-Ethylsulfanyl-N-[(3-fluorophenyl)-methyl]-4-methyl-6-(4-methyl-3-oxo-piperazin-1-yl)-pyridine-3-carboxylic acid amide]
22 | 92 | 12100 | CCSc1nc(N2CC3(COC3)C2)cc(C)c1C(=O)NCc1cccc(F)c1 [Example 151, 2-Ethylsulfanyl-N-[(3-fluorophenyl)-methyl]-4-methyl-6-(6-oxa-2-azaspiro[3.3]heptan-2-yl)-pyridine-3-carboxylic acid amide]
23 | 210 | 676 | CSc1nc(N2CCOCC2)cc(C)c1C(=O)NCCCC(F)(F)F [Example 153, 4-Methyl-2-methylsulfanyl-6-morpholin-4-yl-N-(4,4,4-trifluoro-butyl)-pyridine-3-carboxylic acid amide]
24 | 154 | 394 | CSc1nc(N2CCOCC2)cc(C)c1C(=O)NCc1ccc(F)cc1 [Example 154, N-[(4-Fluorophenyl)-methyl]-4-methyl-2-methylsulfanyl-6-morpholin-4-yl-pyridine-3-carboxylic acid amide]
25 | 158 | 152 | CSc1nc(N2CCOCC2)cc(C)c1C(=O)NCc1ccc(F)c(F)c1 [Example 155, N-[(3,4-Difluoro-phenyl)-methyl]-4-methyl-2-methylsulfanyl-6-morpholin-4-yl-pyridine-3-carboxylic acid amide]
26 | 167 | 157 | CSc1nc(N2CCOCC2)cc(C)c1C(=O)NCc1cc(F)cc(F)c1 [Example 156, N-[(3,5-Difluoro-phenyl)-methyl]-4-methyl-2-methylsulfanyl-6-morpholin-4-yl-pyridine-3-carboxylic acid amide]
27 | 127 | 166 | CSc1nc(N2CCOCC2)cc(C)c1C(=O)NCc1ccc(C(F)(F)F)cc1 [Example 157, 4-Methyl-2-methylsulfanyl-6-morpholin-4-yl-N-[[4-(trifluoromethyl)-phenyl]-methyl]-pyridine-3-carboxylic acid amide]
28 | 143 | 366 | CCSc1nc(N2CCOCC2)cc(C)c1C(=O)NCc1ccc(C)cc1 [Example 161, 2-Ethylsulfanyl-4-methyl-6-morpholin-4-yl-N-(p-tolyl-methyl)-pyridine-3-carboxylic acid amide]
29 | 122 | 237 | CCSc1nc(N2CCOCC2)cc(C)c1C(=O)NCc1cccc(C)c1 [Example 164, 2-Ethylsulfanyl-4-methyl-6-morpholin-4-yl-N-(m-tolyl-methyl)-pyridine-3-carboxylic acid amide]
30 | 134 | 117 | CCOc1nc(N2CCOCC2)cc(C)c1C(=O)NCc1ccc(Cl)cc1 [Example 166, N-[(4-Chlorophenyl)-methyl]-2-ethoxy-4-methyl-6-morpholin-4-yl-pyridine-3-carboxylic acid amide]
31 | 137 | 113 | CCSc1nc(N2CCOC(CC)C2)cc(C)c1C(=O)NCc1cccc(F)c1 (stereo not drawn) [Example 167, 6-(2-Ethyl-morpholin-4-yl)-2-ethylsulfanyl-N-[(3-fluorophenyl)-methyl]-4-methyl-pyridine-3-carboxylic acid amide]
32 | 149 | 132 | CSc1nc(N2CCOCC2)cc(C)c1C(=O)NCc1ccc(Cl)cc1 [Example 168, N-[(4-Chlorophenyl)-methyl]-4-methyl-2-methylsulfanyl-6-morpholin-4-yl-pyridine-3-carboxylic acid amide]
33 | 221 | 422 | CCN(C)c1nc(N2CCOCC2)cc(C)c1C(=O)NCc1ccc(F)cc1 [Example 174, 2-(Ethyl-methyl-amino)-N-[(4-fluorophenyl)-methyl]-4-methyl-6-morpholin-4-yl-pyridine-3-carboxylic acid amide]
